In patent publication US7488730B2, “N-(1,2,3,4-tetrahydronaphthalen-1-yl)-4-phenyl-1-piperazinealkylamide derivatives, and therapeutic use thereof as 5-HT7 receptor ligands” (Universita Degli Studi Di Bari, priority 2005, dated 2009):
Structures can show the parent of a compound that is named as a salt. No end group written: not given here.

Experiments:
[1] = target: T1, rat cloned 5-HT7 receptor (Rattus norvegicus, UniProt P32305); experiment: Radioligand binding assay ([3H]-LSD) at rat cloned 5-HT7Rs; details: for Ki: [3H]-LSD, rat recombinant 5-HT7R expressed in HEK-293 cells
T1 construct: purchased PerkinElmer-NEN; host or cells: HEK-293
T1 sequence (P32305 whole entry): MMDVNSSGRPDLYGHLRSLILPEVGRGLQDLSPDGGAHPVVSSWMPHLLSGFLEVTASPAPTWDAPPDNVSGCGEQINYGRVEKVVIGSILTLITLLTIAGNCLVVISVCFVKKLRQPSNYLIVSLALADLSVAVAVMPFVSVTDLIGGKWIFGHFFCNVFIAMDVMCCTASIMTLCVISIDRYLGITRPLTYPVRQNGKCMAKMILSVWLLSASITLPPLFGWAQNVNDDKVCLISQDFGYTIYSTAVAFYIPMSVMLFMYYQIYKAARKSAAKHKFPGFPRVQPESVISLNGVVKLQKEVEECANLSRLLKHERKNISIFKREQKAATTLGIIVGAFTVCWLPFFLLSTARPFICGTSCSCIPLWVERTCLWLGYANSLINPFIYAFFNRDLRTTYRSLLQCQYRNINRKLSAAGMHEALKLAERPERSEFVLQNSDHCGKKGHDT
Experimental: Rat recombinant serotonin 5-HT7R expressed in HEK-293 cells were purchased from PerkinElmer-NEN (Betsville, Md., USA).
Radioligand Binding Assay at Rat Cloned 5-HT7Rs. Binding of [^3H]-LSD at rat cloned 5-HT7 receptor was performed according to a known method. In 1 mL of incubation buffer (50 mM Tris, 10 mM MgCl2 and 0.5 mM EDTA, pH 7.4) were suspended 30 μg of membranes, 2.5 nM [^3H]-LSD, the drugs or reference compound (six to nine concentrations). The samples were incubated for 60 min at 37° C. The incubation was stopped by rapid filtration on GF/A glass fiber filters (pre-soaked in 0.5% polyethylenimine for 30 min). The filters were washed with 3 ? 3 mL of ice-cold buffer (50 mM Tris, pH 7.4). Nonspecific binding was determined in the presence of 10 μM 5-CT. Approximately 90% of specific binding was determined under these conditions.

5-HT1A receptors = target: T2, 5-HT1A receptors (Rattus norvegicus, UniProt P19327); details: for Ki: read-out: Ki, nM 5-HT1A, [3H]-8-OH-DPAT, rat hippocampal membranes
T2 sequence (P19327 1-422): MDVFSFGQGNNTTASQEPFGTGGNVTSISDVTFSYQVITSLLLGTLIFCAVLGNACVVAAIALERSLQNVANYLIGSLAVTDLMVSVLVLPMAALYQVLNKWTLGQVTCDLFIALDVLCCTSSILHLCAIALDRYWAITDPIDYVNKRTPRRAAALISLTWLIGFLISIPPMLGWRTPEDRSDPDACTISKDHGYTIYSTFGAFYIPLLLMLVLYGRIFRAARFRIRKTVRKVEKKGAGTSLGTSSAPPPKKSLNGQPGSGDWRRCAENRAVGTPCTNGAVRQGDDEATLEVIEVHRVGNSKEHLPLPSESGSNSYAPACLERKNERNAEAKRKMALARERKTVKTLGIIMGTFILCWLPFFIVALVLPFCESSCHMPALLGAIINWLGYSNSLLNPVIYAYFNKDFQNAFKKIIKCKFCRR
Experimental: Radioligand Binding Assay at Rat Hippocampal Membranes 5-HT1A Receptors. Binding experiments were performed according to a known method. Rats were killed by decapitation, the brain was quickly removed, and the hippocampus was dissected. […] The homogenate was centrifuged at 48000 g for 15 min at 4° C. The supernatant was discarded, and the pellet was resuspended in 25 mL of buffer, then preincubated for 10 min at 37° C. The homogenate was centrifuged at 48000 g for 15 min at 4° C. The supernatant was discarded, and the final pellet was stored at −80° C. until used. […] For competitive inhibition experiments various concentrations of drugs studied were incubated. […] Samples were incubated at 37° C. for 20 min and then filtered on Whatman GF/B glass microfiber filters.
Statistical Analysis. […] The value for the inhibition constant, Ki, was calculated by using the Cheng-Prusoff equation.

5-HT2A receptors [2] = target: T3, 5-HT2A receptors (Rattus norvegicus, UniProt P14842)
T3 sequence (P14842 whole entry): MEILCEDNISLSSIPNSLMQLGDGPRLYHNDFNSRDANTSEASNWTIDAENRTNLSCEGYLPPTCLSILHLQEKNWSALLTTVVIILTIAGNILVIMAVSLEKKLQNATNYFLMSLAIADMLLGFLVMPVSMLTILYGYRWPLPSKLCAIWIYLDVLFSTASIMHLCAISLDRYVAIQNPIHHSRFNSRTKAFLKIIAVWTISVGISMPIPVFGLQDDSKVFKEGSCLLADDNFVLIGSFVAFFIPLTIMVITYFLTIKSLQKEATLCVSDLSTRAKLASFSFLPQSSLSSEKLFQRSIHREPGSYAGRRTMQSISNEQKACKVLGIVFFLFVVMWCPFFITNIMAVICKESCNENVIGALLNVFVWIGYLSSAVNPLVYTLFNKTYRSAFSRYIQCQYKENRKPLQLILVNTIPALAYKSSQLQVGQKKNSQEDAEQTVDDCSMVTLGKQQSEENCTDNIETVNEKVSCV
Experimental: (§1) Radioligand Binding Assay at Rat Cortex Membranes 5-HT2A Receptors. […] Rats were killed by decapitation, the brain was quickly removed, and the cortex was dissected. […] The homogenate was centrifuged at 2000 g for 10 min at 4° C. The supernatant was saved, and the pellet was resuspended in 25 mL of buffer. The surnatantes were collected and diluted 1:10 w/w with 10 mM Tris pH 7.4. The homogenate was centrifugated at 35000 g for 15 min at 4° C. The supernatant was discarded, and the final pellet was stored at −80° C. until used. […] For competitive inhibition experiments various concentrations of drugs studied were incubated. […] Samples were incubated at 37° C. for 15 min and then filtered on Whatman GF/B glass microfiber filters.
(§2) Statistical Analysis. […] PRISM® program. The value for the inhibition constant, Ki, was calculated by using the Cheng-Prusoff equation.

hamsters = experiment: Circadian phase shift in hamsters after injection; assay type: in vivo
From the text: This provides evidence that no additional receptor subtype, such as the 5-HT1A receptor or the 5-HT5A receptor, is necessary for this effect.

[3] = system: isolated guinea-pig ileum; experiment: Substance P contraction of isolated guinea-pig ileum (concentration-response); details: 100 nM
From the text: Isolated Guinea-Pig Ileum Assay.

5-HT7 receptor = 5-HT7 receptor (Cavia porcellus, UniProt P50407); experiment: Isolated guinea-pig ileum assay: relaxation of substance P-induced contraction
5-HT7 receptor, sequence (P50407 whole entry): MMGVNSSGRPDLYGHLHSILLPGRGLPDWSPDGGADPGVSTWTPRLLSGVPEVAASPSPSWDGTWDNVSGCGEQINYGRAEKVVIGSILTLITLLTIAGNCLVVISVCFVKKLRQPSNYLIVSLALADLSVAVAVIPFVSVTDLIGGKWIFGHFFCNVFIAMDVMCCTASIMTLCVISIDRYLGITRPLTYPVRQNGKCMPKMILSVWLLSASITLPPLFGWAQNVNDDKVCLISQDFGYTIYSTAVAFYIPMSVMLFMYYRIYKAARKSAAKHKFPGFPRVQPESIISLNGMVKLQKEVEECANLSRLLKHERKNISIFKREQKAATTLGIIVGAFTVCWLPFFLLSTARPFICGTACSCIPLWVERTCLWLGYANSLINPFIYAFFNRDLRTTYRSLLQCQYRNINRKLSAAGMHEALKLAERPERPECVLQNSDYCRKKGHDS
Experimental: Isolated Guinea-Pig Ileum Assay. Guinea-pigs were anesthetized and then decapitated and the proximal ileum removed. […] Changes in tension of the tissue were recorded by Fort 10 Original WPI isometric transducer (2Biological Instruments, Italy) connected to a PowerLab/400 workstation. […] Tested compounds were added 3 min before substance P addition.
The isolated guinea pig ileum was equilibrated for 75 min with antagonist before constructing concentration-response curves of tested compounds.
Tissue responses were recorded as gram changes in isometric tension and expressed as percentage of reduction in the height of the contraction.
Agonist potencies, expressed as EC50, were obtained from non-linear iterative curve fitting by [sequence] PRISM®.

5-HT2A receptors [4] = target: T3, 5-HT2A receptors; experiment: Radioligand binding assay ([3H]-ketanserin) at rat cortex membranes 5-HT2A receptors
Experimental: as §1, §2

Molecule: CS(=O)(=O)c1ccccc1N1CCN(CCCCCC(=O)NC2CCCc3ccccc32)CC1 (stereo not drawn) [Compound 45]
- Ki [1]: 298 ± 16 nM
- Ki (5-HT1A receptors): 3120 ± 260 nM
- 5-HT2A, percentage in parentheses after >4000 (5-HT2A receptors [2]): 38%

Molecule: CC1CCN(CC[C@H]2CCCN2S(=O)(=O)c2cccc(O)c2)CC1 [SB-26770-A, reference compound]
- effect on phase shifts caused by compound 44 (hamsters; microinjection into the dorsal raphe before compound 44, relative to vehicle pretreatment): significantly block phase shifts

Molecule: CC(=O)c1ccccc1N1CCN(CCCCCC(=O)NC2CCCc3ccccc32)CC1 (stereo not drawn) (as salt: HCl) (hydrate or solvate) [Compound 34, 4-(2-Acetylphenyl)-N-(1,2,3,4-tetrahydronaphthalen-1-yl)-1-piperazinehexanamide]
- melting point: 136 to 139 °C

Molecule: CC(=O)c1ccc(N2CCN(CCCCCC(=O)NC3CCCc4ccccc43)CC2)cc1 (stereo not drawn) (as salt: HCl) [Compound 42]
- melting point: 112 to 114 °C

Molecule: COc1ccccc1N1CCN(CCCC(=O)NC2CCCc3cccc(OC)c32)CC1 (stereo not drawn) (as salt: HCl) [Compound 23, N-(8-Methoxy-1,2,3,4-tetrahydronaphthalen-1-yl)4-(2-methoxyphenyl)-1-piperazinebutanamide]
- melting point: 131 to 133 °C

Molecule: substance P: contracting agent of the guinea-pig ileum assay, purchased from Tocris Cookson (RPKPQQFFGLM; ends and bridges not checked; UniProt P20366 58-68, looked up)
- contraction, % of maximum contraction [3]: 80%

Molecule: CSc1ccccc1N1CCN(CCCCCC(=O)NC2CCCc3ccccc32)CC1 (stereo not drawn) [Compound 44, 4-(2-Methylthiophenyl)-N-(1,2,3,4-tetrahydronaphthalen-1-yl)-1-piperazinehexanamide]
- 5-HT7R affinity (in words) [1]: high affinity
- Ki [1]: 0.22 nM
- EC50 (5-HT7 receptor): 2560 nM
- PA2 (vs SB-269970) (5-HT7 receptor; in the presence of antagonist SB-269970 (0.1 μM-3 μM)): 7.70 ± 0.80
- 5-HT7 intrinsic activity (in words) (5-HT7 receptor; isolated guinea-pig ileum): Full agonists
- Emax (5-HT7 receptor; read-out: Maximal Effect %): 100%
- Schild plot (5-HT7 receptor; vs SB-269970, p value in parentheses): 0.9 (p < 0.0001)
- selectivity over 5-HT1A receptors (5-HT1A receptors; 5-HT7R versus 5-HT1A): 200 fold
- Ki (5-HT1A receptors): 52.7 ± 3.2 nM
- circadian phase shift (hamsters; microinjection into the dorsal raphe): cause phase shift advances
- selectivity over 5-HT2A receptors (5-HT2A receptors [4]; 5-HT7R versus 5-HT2A): > 1000 fold
- Ki (5-HT2A receptors [4]; read-out: Ki, nM 5-HT2A, [3H]-ketanserin, rat cortex membranes): 326 ± 35 nM

Molecule: NC(=O)c1ccccc1N1CCN(CCCCCC(=O)NC2CCCc3ccccc32)CC1 (stereo not drawn) [Compound 43]
- Ki [1]: 229 ± 12 nM
- Ki (5-HT1A receptors): 494 ± 35 nM
- 5-HT2A, percentage in parentheses after >4000 (5-HT2A receptors [2]): 9%

Molecule: COc1ccc2c(c1)C(NC(=O)CCCCCN1CCN(c3ccccc3OC)CC1)CCC2 (stereo not drawn) (as salt: HCl) [Compound 22]
- melting point: 175 to 178 °C
